The values that follow come from article PMC9571290, “Preliminary Structure–Activity Relationship Study of the MMV Pathogen Box Compound MMV675968 (2,4-Diaminoquinazoline) Unveils Novel Inhibitors of Trypanosoma brucei brucei” (Molecules, 2022).

Data set [1] concerns bloodstream forms of Trypanosoma brucei brucei. As to the kind of experiment: resazurin-based antitrypanosomal inhibition assay. The data set is classed as cell-based. The note with it: for pIC50 T. b. b.: Table 2. As for the experimental part:
Parasites were axenically cultivated in sterile vented flasks containing complete Hirumi’s modified Iscove’s medium 9 (HMI-9) [500 mL IMDM (Iscove’s modified Dulbecco’s medium) (Gibco, Waltham, MA, USA) supplemented with 10% (v/v) heat-inactivated fetal bovine serum (HIFBS) (Sigma Aldrich), 10% (v/v) serum plus (Sigma Aldrich), HMI-9 supplement (1 mM hypoxanthine, 0.16 mM thymidine, 50 µM bathocuproine disulfonic acid, 1.5 mM cysteine, 1.25 Mm pyruvic acid, 0.2 mM 2-mercaptoethanol (Sigma Aldrich)), and 1% (v/v) penicillin–streptomycin (Sigma Aldrich) and incubated at 37 °C in a 5% CO2 atmosphere.
The in vitro inhibitory potency of the 400 MMVPB compounds against bloodstream forms of Trypanosoma brucei brucei was evaluated using the resazurin-based inhibition assay as previously described. Briefly, parasites at their mid-logarithmic growth phase were counted, and the cell density was adjusted with fresh complete HMI-9 medium to 2 × 10^5 trypanosomes per mL. Then, 90 µL of parasite suspension was then distributed into the wells of 96-well flat-bottomed plates containing 10 µL of compounds for a final test concentration of 10 µM. […] Each assay plate was set up in duplicate and repeated two times. The percent parasite inhibition was determined for each compound based on fluorescence readouts relative to the mean fluorescence of negative control wells.
y = 100/[1+ 10^(logIC50/99-x)H], where H is the hill coefficient or slope factor [60].
(Resazurin is reduced to fluorescent resorufin, in cell work by metabolically active cells.)

Data set [2] concerns DHFR. Also on record: method as in PMID 7799402. The note with it: read-out: IC50 DHFR Pneumocystis carinii; cited from earlier work.
The test system of a further data set is Cryptosporidium parvum. Also on record: method as in PMID 11709300. The note with it: read-out: IC50 phenotypic whole parasite testing; cited from earlier work.
A further data set relates to Toxoplasma gondii. Further details: method as in PMID 29133550. The note with it: read-out: IC50 against Toxoplasma gondii; cited from earlier work.
A further data set deals with P. falciparum. Also on record: method as in PMID 28674055. The note with it: cited from earlier work.
The next data set can be described thus: in vitro. The note with it: African green monkey. The protocol: (§1) The resulting pellet was resuspended and counted in a Neubauer chamber in the presence of trypan blue to exclude nonviable cells colored in blue. Once the cell load was estimated, they were either used for the next passage in a new flask or processed for the cytotoxicity assay.
(§2) Briefly, Vero cells at a density of 10^4 cells per well were plated in 100 µL of complete DMEM and incubated overnight to allow cell attachment. Plates were then controlled under an inverted fluorescence microscope (Lumascope LS520) to ensure adherence, sterility and cell integrity. Thereafter, culture medium from each well was carefully emptied, and plates were filled with 90 µL of fresh complete medium followed by the addition of 10 µL of serial 5-fold dilutions of compound solutions. […] Fluorescence was then read using a Magelan Infinite M200 fluorescence multiwell plate reader (Tecan) with excitation and emission wavelengths of 530 and 590 nm, respectively. The percentage of cell viability was calculated from readouts, and the median cytotoxic concentration (CC50) for each compound was deduced from concentration–response curves using GraphPad Prism 8.0 software as described above. Selectivity indexes were then determined for each test substance as follows: SI = CC50(Vero cells)/IC50(T. brucei brucei).

In data set [3] the test system is Cryptosporidium parvum-I DHFR. Also on record: method as in PMID 11709300. The note with it: in vitro; cited from earlier work.
Data set [4] relates to DHFR. Further details: method as in PMID 7799402. The note with it: read-out: IC50 DHFR Toxoplasma gondii; cited from earlier work.
The next data set concerns T. b. brucei. Further details: method as in Duffy et al., 13. The note with it: ref Duffy et al., 13; read-out: IC50 against T. b. brucei; cited from earlier work.
The test system of data set [5] is kinetoplastids (T. brucei brucei and T. brucei rhodesiense). Also on record: method as in MMV Pathogen Box supporting information. The note with it: against kinetoplastids; ref MMV Pathogen Box supporting information; read-out: Reported IC50; cited from earlier work.
A further data set deals with Vero cells. As to the kind of experiment: cytotoxicity against Vero cells (resazurin viability assay). The note with it: read-out: CC50 Vero; Table 2. As for the experimental part:
as §1, §2

Data set [6] deals with bloodstream form of Trypanosoma brucei brucei. Description: parasite-killing kinetics and cidal or static effect. In kind it is cell-based. The note with it: IC90 and IC99; removal at 4 h (10) or 24 h (7), subculture in inhibitor-free medium. As for the experimental part: Thus, they were selected, and their effect at various concentrations was assessed on the proliferation rate of the bloodstream form of Trypanosoma brucei brucei using microscopic cell count. […] After specified exposure time intervals (0, 4, 8, 12, 24, 30, 36, 48, 60, 72 h), the content of each well was harvested and counted on a Neubauer hemacytometer to determine the number of mobile parasites. The obtained values were used to plot the growth curves as parasite density (cells/mL) versus incubation time using GraphPad Prism 8.0 software.
Therefore, the ability of parasites to recover post exposure to inhibitors 10 and 7 was further evaluated. […] After that, the cells were washed three times with fresh complete medium by centrifugation at 2500 rpm for 7 min. Cell pellets were thereafter resuspended in fresh complete culture medium in a 24-well plate and subcultured under the same conditions for 68 h for compound 10 and 48 h for compound 7 to achieve the complete parasite growth pattern. Thereafter, cells were enumerated using the Neubauer cell counter at each time point. The assay was performed in duplicate, and the mean cell counts were plotted […] against time using GraphPad Prism 8.0 to assess the cidal or static effect of inhibitors.

The nature of data set [7]: ferric ion reducing antioxidant power (FRAP). The note with it: Fe^3+-reducing activity. The protocol: Iron is one of the vital elements for all parasites, including trypanosomes, as it plays a key role in pathogenesis and the host immune response. Therefore, iron bioavailability reducing agents to the parasite could be potential candidates for drug development against trypanosomiasis. To this end, we determined the capacity of the test compounds to reduce iron from ferric to ferrous status using the method described by Benzie et al.. Briefly, 25 µL of each compound (7 and 10) was added to 25 µL of a solution of Fe^3+ prepared at 1.2 mg/mL in distilled water in a 96-well microplate. The plate was incubated for 15 min at room temperature in darkness, after which 50 µL of ortho-phenanthroline (0.2% in methanol) was added to achieve final compound concentrations ranging from 400 µM to 0.19 µM. Plates were reincubated for 15 min, and the absorbance was measured at 510 nm. Ascorbic acid was used as a positive control and tested at concentrations ranging from 100 to 0.048 μg/mL. The median reducing concentration (RC50) values of compounds were determined through sigmoidal concentration–response curves using GraphPad Prism version 8.0 software.

[8] abbreviates: Trypanosoma brucei, Table 4, negative log of IC50 in molar, read-out: pIC50 T. b. b. (converted).
Where [9] appears, read: Table 2, MMVPB compounds with known anti-kinetoplastid activity, read-out: IC50 ± SD T. b. b.

Read-outs that look alike come from different tables or passages of the source.

`COc1ccc(OC)c(NCc2ccc3nc(N)nc(N)c3c2Cl)c1` [Analog 1, 2,4-diamino-5-chloro-6-[(2,5-dimethoxyanilino)methyl]quinazoline]: the IC50 in data set [1] (Table 4, analogs of MMV675968, solid material, read-out: IC50 ± SD T. b. b.) is 2600 nM; in data set [1] (Trypanosoma brucei, Table 3, MMVPB compounds with known potency against other diseases, read-out: IC50 ± SD T. b. b.), 2800 ± 70 nM; in [1] (Trypanosoma brucei, Table 3, negative log of IC50 in molar, read-out: pIC50 T. b. b. (converted)), 2820 nM; in data set [1] (Trypanosoma brucei, Table 4, analogs of MMV675968, solid material, read-out: IC50 ± SD T. b. b.), 2600 to 2800 nM; in data set [1] (setting [8]) it was 2630 nM; in the data set with DHFR [2], 0.051 µM. The IC50 was 0.2 µM in the data set with Cryptosporidium parvum; 0.02 µM in the data set on Toxoplasma gondii; 0.07 µM in the data set with P. falciparum; 0.0065 µM in data set [3]; 0.03 µM with DHFR [4]. Further, the CC50 at 48 h in “in vitro” is over 100 µM.

For the molecule `Cc1nn(C)c(C)c1NS(=O)(=O)c1c(Cl)cc(-c2ccnc(N3CCNCC3)c2)cc1Cl` [MMV688180], the IC50 in the data set with T. b. brucei is 0.01 µM; in [1] (setting [9]), 2.3 nM; in data set [1] (given in nM, read-out: IC50 against T. b. brucei), 2.3 nM; in [5], under 0.13 µM. Besides, the “pIC50 T. b. b.” value in data set [1] (negative log of IC50 in molar) is recorded as 8.64. The CC50 in the data set on Vero cells is over 100 µM.

Consider `Cc1cccnc1NC(=O)c1cccc(OCc2c(C)noc2C)c1` [MMV688793], for which the IC50 in data set [1] (setting [9]) is 360 ± 40 nM; in data set [5], 2.07 µM. For the same molecule, in [1] (negative log of IC50 in molar), the “pIC50 T. b. b.” value is given as 6.44. Further, the CC50 with Vero cells was over 100 µM.

In the case of `O=C(NCCc1ccn(-c2ccccc2)n1)C1CCCCC1` [MMV688795], the IC50 in [1] (setting [9]) was 350 ± 20 nM; in data set [5], 0.15 µM. Further, the “pIC50 T. b. b.” value in [1] (negative log of IC50 in molar) was 6.45. Further, the CC50 in the data set with Vero cells is over 100 µM.

For the molecule `O=C(NCc1nnc2n1CCCCC2)c1ccc(-c2ccc(F)cc2)o1` [MMV688796], the IC50 is 30 ± 10 nM in data set [1] (setting [9]) and 0.1 µM in [5]. Further, the “pIC50 T. b. b.” value in data set [1] (negative log of IC50 in molar) stood at 7.52. For the same molecule, the CC50 in the data set on Vero cells was over 100 µM.

For `CC1CCCCN1C(=O)NCCc1coc(-c2ccc(F)cc2)n1` (stereo not shown) [MMV688797], the IC50 in data set [1] (setting [9]) is 60 ± 20 nM; in [5], 0.13 µM. The “pIC50 T. b. b.” value in [1] (negative log of IC50 in molar) amounted to 7.22. Besides, the CC50 in the data set on Vero cells is over 100 µM.

On to `COc1ccc(S(=O)(=O)Nc2ccc(CN3CCN(C(=O)c4cccc(C#N)c4)CC3)cc2)cc1` [MMV689029], for which the results for the IC50 in [1] (setting [9]) and in data set [5] were 1300 ± 600 nM and 0.5 µM, respectively. Also, the “pIC50 T. b. b.” value in data set [1] (negative log of IC50 in molar) is 5.88. Moreover, the CC50 in the data set on Vero cells was over 100 µM.

`CC(=O)Nc1ccc(-c2noc(CC3CCCN(Cc4cccc(F)c4C)C3)n2)cc1` (stereo not shown) [MMV689061]: the IC50 in [1] (setting [9]) was 1900 ± 100 nM; in data set [5], 32.3 µM. In addition, the “pIC50 T. b. b.” value in [1] (negative log of IC50 in molar) is on record as 5.72. Further, the CC50 with Vero cells is over 100 µM.

Take `COc1ccc(C2=NN(C3CCCCCC3)C(=O)[C@@H]3CC=CC[C@H]23)cc1OCCCCOc1ccc(-c2nn[nH]n2)cc1` [MMV690027]: the IC50 was 2800 ± 70 nM in data set [1] (setting [9]) and 0.02 µM in data set [5]. Also, the “pIC50 T. b. b.” value in [1] (negative log of IC50 in molar) amounted to 5.55. In the data set on Vero cells, the CC50 is over 100 µM.

As for `N=C(N)c1ccc(OCCCCCOc2ccc(C(=N)N)cc2)cc1` [Pentamidine, reference compound], the IC50 in data set [1] (Trypanosoma brucei, Table 1, reference drugs included in MMVPB, read-out: IC50 ± SD T. b. b.) is 2 ± 0.3 nM; in data set [1] (Trypanosoma brucei, Table 1, negative log of IC50 in molar, read-out: pIC50 T. b. b. (converted)) it was 2 nM; in [1] (setting [8]), 2.24 nM. The “cidal or static effect after inhibitor removal” value in [6] is on record as “static profile”. This molecule also came in with a CC50 at 48 h in the data set “in vitro” of over 100 µM.

Take `O=C1O[C@H]([C@@H](O)CO)C(O)=C1O` [ascorbic acid, reference compound]: the “median reducing concentration (RC50)” value in [7] was determined as 165 µM.
